Source: patent publication EP0164635A2, “Imidazothiazolemethylene-acetohydrazide derivatives, preparation thereof and pharmaceutical composition having diuretic activity” (MEDIOLANUM FARMACEUTICI s.r.l., priority 1984, dated 1985)

How the values were obtained:
rats = assay: Diuretic activity: urinary sodium excretion over 6 hours after oral administration; assay type: in vivo, rat; details: rat, sodium urinary excretion in 6 h vs controls (control = 100), read-out: Diuretic effect %; for response vs control in vivo at 20 mg/kg: dose 20 mg/kg oral; for response vs control in vivo at 5 mg/kg: dose 5 mg/kg oral
Description: The first series of tests was carried out to rats orally administered with distilled water (25 ml/kg) containing the product under test, previously suspended in Tween 80 (1% v/v with respect to water). Urina of the 6 hours following the treatment was collected in order to measure the sodium concentration, by means of atomic absorption. The ratio of the meq/100 g of body weight of the treated animals to the corresponding ratio of the meq/100 g of body weight of the control animals (treated with the sole vehicle) was calculated, in order to determine the dose of the test compound doubling or trebling or anyway increasing the sodium excretion.

in vivo = details: rat
rat [1] = assay: Excreted urinary volumes after oral administration, with a second water load after 0-3 h; assay type: in vivo
Description: (§1) The compounds were administered by the oral route, under the same conditions as described in the previous test, but the animals, after the O-3 hours interval, were treated with further 25 ml/kg of distilled water, by intubation.

rat [2] = assay: Excreted urinary electrolytes after oral administration, with a second water load after 0-3 h; assay type: in vivo
Description: as §1

SMILES: CN(C)CC(=O)NN=Cc1c(-c2ccc(Cl)cc2)nc2sccn12 [Example 4]
- response vs control in vivo at 20 mg/kg (rats): 170%
- LD50 (in vivo; ip): > 1000 mg/kg
- LD50 (in vivo; po): > 1000 mg/kg

SMILES: Cc1cn2c(C=NNC(=O)CN(C)C)c(-c3ccccc3)nc2s1 [Example 8, N,N-Dimethylaminoacetyl-[[2-methyl-6-phenyl-imida-zo[2,1-b]thiazole-5-yl]methylene]hydrazide]
- response vs control in vivo at 1 mg/kg (rats; dose 1 mg/kg oral): 300%
- EXCRETED URINARY VOLUMES WITH RESPECT TO BODY WEIGHT (rat [1]; 2.5 mg/kg, 0-3 h): 0.0265 L/kg
- EXCRETED URINARY VOLUMES WITH RESPECT TO BODY WEIGHT (rat [1]; 2.5 mg/kg, 0-6 h): 0.0432 L/kg
- EXCRETED URINARY VOLUMES WITH RESPECT TO BODY WEIGHT (rat [1]; 2.5 mg/kg, 3-6 h): 0.0167 L/kg
- EXCRETED URINARY VOLUMES WITH RESPECT TO BODY WEIGHT (rat [1]; 10 mg/kg, 0-3 h): 0.0345 L/kg
- EXCRETED URINARY VOLUMES WITH RESPECT TO BODY WEIGHT (rat [1]; 10 mg/kg, 0-6 h): 0.0509 L/kg
- EXCRETED URINARY VOLUMES WITH RESPECT TO BODY WEIGHT (rat [1]; 10 mg/kg, 3-6 h): 0.0164 L/kg
- EXCRETED URINARY ELECTROLYTES WITH RESPECT TO BODY WEIGHT, K^+ (rat [2]; 10 mg/kg, 0-3 h): 0.66 mEq/kg
- EXCRETED URINARY ELECTROLYTES WITH RESPECT TO BODY WEIGHT, Na^+ (rat [2]; 10 mg/kg, 0-3 h): 2.24 mEq/kg
- EXCRETED URINARY ELECTROLYTES WITH RESPECT TO BODY WEIGHT, K^+ (rat [2]; 10 mg/kg, 0-6 h): 0.99 mEq/kg
- EXCRETED URINARY ELECTROLYTES WITH RESPECT TO BODY WEIGHT, Na^+ (rat [2]; 10 mg/kg, 0-6 h): 2.39 mEq/kg
- EXCRETED URINARY ELECTROLYTES WITH RESPECT TO BODY WEIGHT, K^+ (rat [2]; 10 mg/kg, 3-6 h): 0.33 mEq/kg
- EXCRETED URINARY ELECTROLYTES WITH RESPECT TO BODY WEIGHT, Na^+ (rat [2]; 10 mg/kg, 3-6 h): 0.15 mEq/kg
- EXCRETED URINARY ELECTROLYTES WITH RESPECT TO BODY WEIGHT, K^+ (rat [2]; head prints 10 mg/kg, 0-3 h): 0.48 mEq/kg
- EXCRETED URINARY ELECTROLYTES WITH RESPECT TO BODY WEIGHT, Na^+ (rat [2]; head prints 10 mg/kg, 0-3 h): 1.32 mEq/kg
- EXCRETED URINARY ELECTROLYTES WITH RESPECT TO BODY WEIGHT, K^+ (rat [2]; head prints 10 mg/kg, 0-6 h): 0.83 mEq/kg
- EXCRETED URINARY ELECTROLYTES WITH RESPECT TO BODY WEIGHT, Na^+ (rat [2]; head prints 10 mg/kg, 0-6 h): 1.38 mEq/kg
- EXCRETED URINARY ELECTROLYTES WITH RESPECT TO BODY WEIGHT, K^+ (rat [2]; head prints 10 mg/kg, 3-6 h): 0.35 mEq/kg
- EXCRETED URINARY ELECTROLYTES WITH RESPECT TO BODY WEIGHT, Na^+ (rat [2]; head prints 10 mg/kg, 3-6 h): 0.056 mEq/kg
- LD50 (in vivo; ip): > 3000 mg/kg
- LD50 (in vivo; po): > 3000 mg/kg

SMILES: NCC(=O)NN=Cc1c(-c2ccccc2)nc2sccn12 [Example 14]
- response vs control in vivo at 20 mg/kg (rats): 130%
- LD50 (in vivo; po): > 1000 mg/kg

SMILES: Cc1nc2n(c1C=NNC(=O)CN(C)C)CCS2 [Example 10]
- LD50 (in vivo; ip): > 1000 mg/kg
- LD50 (in vivo; po): > 1000 mg/kg

SMILES: Cc1ccc(-c2nc3sccn3c2C=NNC(=O)CN(C)C)cc1 [Example 5]
- response vs control in vivo at 5 mg/kg (rats): 130%
- LD50 (in vivo; ip): > 3000 mg/kg
- LD50 (in vivo; po): > 3000 mg/kg

SMILES: CN(C)CC(=O)NN=Cc1c(-c2ccccc2)nc2n1CCS2 [Example 9]
- response vs control in vivo at 10 mg/kg (rats; dose 10 mg/kg oral): 230%
- LD50 (in vivo; ip): > 1000 mg/kg
- LD50 (in vivo; po): > 3000 mg/kg

SMILES: NS(=O)(=O)c1cc2c(cc1C(F)(F)F)NCNS2(=O)=O [Hydroflumethia-zide, hydroflumethiazide, reference compound]
- response vs control in vivo at 5 mg/kg (rats): 260%
- LD50 (in vivo; iv): 750 mg/kg

SMILES: CN(C)CC(=O)NN=Cc1c(-c2ccccc2)nc2sccn12 [Example 3]
- response vs control in vivo at 5 mg/kg (rats): 310%
- LD50 (in vivo; ip): ~600 mg/kg
- LD50 (in vivo; po): ~600 mg/kg
